Source: patent US20160095894A1, “DIETETIC MULTI-COMPONENT SYSTEM” (priority 2011, published 2016)

How the values were obtained:
[1] = Treatment of cardiovascular diseases; type: in vivo, human
Procedure: The subjects were treated with sodium carbonate with about at least 2 g daily, with improvement occurring within short time, within about 1-2 weeks.

[2] = Treatment of skin diseases (psoriasis, neurodermatitis); type: in vivo, human
Procedure: The term skin diseases describes in particular psoriasis and neurodermatitis. Basically, in the case of psoriasis patients the inventive dosing schedule is very welcome, because it counterbalances the negative effects of very strong medications that are administered in such cases; these improve by 65-80% with the inventive dosing schedule.
The subjects were treated with sodium carbonate with about 2 g+daily, after which the normal effect is achieved as described above; 1-2 weeks.

[3] = tested on: tumor tissue; assay: Treatment of cancer under medical supervision
[4] = Treatment of obesity, cellulitis, cellulite, acne
[5] = Treatment of acidosis, test series with and without Na
[6] = test series 2, at least 2 g daily

O=C([O-])[O-].[Na+].[Na+] [sodium carbonate]
time until improvement occurred ([1]; about at least 2 g daily): 1-2 weeks | uptake of mineral substances and natural medicines ([1]; cardiovascular diseases): improved considerably | rehabilitation ([1]; cardiovascular diseases, followed by vitamins and trace elements): 100% | time until the normal effect is achieved ([2]; about 2 g+ daily): 1-2 weeks | considerable improvement ([2]; psoriasis or neurodermatitis patients): about 80% | time until tissue reacted perceptibly ([3]; cancer, at least 2 g daily): 1-2 weeks | swelling reduced ([3]; cancer, statements made by the subjects): about 80% | reduction in tumor size ([3]; cancer, to date): about 30% | uptake of mineral substances and natural medicines ([3]; used internally and externally): improved considerably | weight change ([4]; followed by high-dose vitamins and acids for several weeks, no yo-yo effect over about 2 years): extensive weight reduction | rehabilitation ([4]; obesity, cellulitis, cellulite, acne): 95% | uptake of mineral substances and natural medicines ([4]; test series 2): improved considerably | time until tissue responded perceptibly [4, 6]: 1-2 weeks | uptake of mineral substances and natural medicines ([5]; test series 2): improved considerably and obviously | time until improvement occurred [5, 6]: 1-2 weeks | successful ([5]; test series 2, followed by vitamins and trace elements): 100%
